Measurements published in US20240109941A1 (University of California, published 2024).
Like-named read-outs stand apart in the source and are kept apart here.

B1: CghSAMPa (full length stable antimicrobial peptide) (peptide)
chain: MCCNRGKNVSIENLHQGFTHIFESTFESTEGVAEYVSHPSHVEYANLFLANLEKVLVIDYKPTTVRV
notes: In the native gel it ran as polymers, 'likely hexamers based on the molecular weight'; also called MaSSAMP; Syd72SSAMP1
B2: CghSAMPa helix 2 (peptide)
peptide: SHVEYANLFLANLEKVLVIDYK
notes: 22-residue fragment of CghSAMPa holding only the second alpha-helix; In the native gel it ran as polymers, likely hexamers; also called MaSSAMP-helix2; SAMP-helix 2

Key:
[1] = tested on: Liberibacter crescens; type: cell-based; conditions: Liberibacter crescens 10^6/mL; for anti-bacterial activity (viability staining, confocal microscopy): 30 μM, 2 hours
[2] = tested on: defense marker genes, including PR2, PAL, and CHI; type: in vivo; conditions: 10 μM spray, Carrizo seedlings
[3] = target: the molecule itself; test: native PAGE, self-association
[4] = tested on: B. thuringiensis; type: cell-based; conditions: compared to L. crescens; concentrations shown in FIG. 5
[5] = tested on: E. coli; type: cell-based; conditions: compared to L. crescens; concentrations shown in FIG. 5

| Molecule | anti-bacterial activity (viability staining, confocal microscopy) [1] | anti-bacterial activity (viability staining, confocal microscopy) ([1]; listed as helix 2) | anti-bacterial activity compared to full length CghSAMPa (viability staining) ([1]; 5 hours, same concentration or triple dosages of helix 2 vs full length) | induction of defense response (PR2, PAL, CHI expression normalized to Ubiquitin) ([2]; 1 day post-treatment) | duration of defense gene induction ([2]; time course up to 7 days post treatment) | binding result [3] | tolerance of B. thuringiensis to SAMP treatment [4] | tolerance of E. coli to SAMP treatment [5] |
| --- | --- | --- | --- | --- | --- | --- | --- | --- |
| SHVEYANLFLANLEKVLVIDYK [CghSAMPa helix 2, polypeptide containing CghSAMPa helix 2] | plays an important role in anti-bacterial activity | found to be a functional SAMP | retained much of the anti-bacterial activity of full length SAMP | induced a defense response | maintained for the 7-day time period | – | – | – |
| B1 | – | – | – | – | – | binds | highly tolerant | more tolerant of SAMP treatment compared to L. crescens |
| B2 | – | – | – | – | – | binds | – | – |
